Paper PMC10747725, “The Synthesis, In Vitro Bio-Evaluation, and In Silico Molecular Docking Studies of Pyrazoline–Thiazole Hybrid Analogues as Promising Anti-α-Glucosidase and Anti-Urease Agents” (Pharmaceuticals, 2023)
Read-outs that look alike come from different tables or passages of the source.

How the values were obtained:
urease = urease (Canavalia ensiformis, UniProt P07374); assay: biochemical
Method: During the experiment, 55 L of buffer solution containing 100 mM of urea was combined with 25 L of enzyme solution to prepare reaction mixtures. A volume of 5 L containing 1 mM concentrations of recently produced compounds was then added to these mixtures. After 15 min of incubation at 30 °C, the reactions were allowed to occur in 96-well plates. The detection of ammonia generation by urease was carried out by using the Indophenol technique. A phenol reagent containing 1% w/v phenol and 0.005% w/v sodium nitroprusside was added to each well along with 70 µL of an alkali reagent containing 0.5% w/v NaOH and 0.1% active chloride NaOCl. Utilizing a microplate reader manufactured by Molecular Device in the United States, the increased absorbance was measured at 630 nm after another 50 min. In triplicate, the aforementioned procedures were performed using a constant end volume of […]. The final data, representing the rate at which the absorbance changed per minute, were analysed with the SoftMax Pro program by Molecular Device, New York, NY, USA. In alkaline conditions with a pH of 8.2, the experiments were conducted using 0.01 M K2HPO4·3H2O, 1 mM EDTA, and 0.01 M LiCl. A conventional inhibitor of urease, thiourea, was used in this study to determine the percentage of inhibition.

α-glucosidase = assay: α-Glucosidase inhibitory assay; format: biochemical; details: in vitro; standard acarbose; N.A * = Not active; read-out: α-Glucosidase IC50 (µM ±SEM)
Method: A procedure based on the previously reported procedure with minor modifications was used to determine the inhibitory capacity of the newly designed derivatives of benzothiazole-derived pyrazoline-based thiazole (1–17). For 20 min at 37 °C, […] in 100 mM of phosphate buffer (pH 6.8) for 20 min. The reaction mixture was then incubated for 1 h at 37 °C with 250 mL of 4-nitrophenyl-b-D-glucopyranoside solution and 250 mL of 1% starch dissolved in 100 mM of phosphate buffer (pH 6.8), respectively. Following this, the reaction mixture was heated for 10 min with 1.0 mL of 3,5-dinitrosalicylic acid colouring reagent. The absorbance of the final reaction mixture was determined for α-glucosidase at 405 nm. To correct the absorbance, a blank was prepared. […] A percentage of the inhibitory activity was calculated using a control sample without the inhibitors.

Sequence of urease (P07374 whole entry, looked up): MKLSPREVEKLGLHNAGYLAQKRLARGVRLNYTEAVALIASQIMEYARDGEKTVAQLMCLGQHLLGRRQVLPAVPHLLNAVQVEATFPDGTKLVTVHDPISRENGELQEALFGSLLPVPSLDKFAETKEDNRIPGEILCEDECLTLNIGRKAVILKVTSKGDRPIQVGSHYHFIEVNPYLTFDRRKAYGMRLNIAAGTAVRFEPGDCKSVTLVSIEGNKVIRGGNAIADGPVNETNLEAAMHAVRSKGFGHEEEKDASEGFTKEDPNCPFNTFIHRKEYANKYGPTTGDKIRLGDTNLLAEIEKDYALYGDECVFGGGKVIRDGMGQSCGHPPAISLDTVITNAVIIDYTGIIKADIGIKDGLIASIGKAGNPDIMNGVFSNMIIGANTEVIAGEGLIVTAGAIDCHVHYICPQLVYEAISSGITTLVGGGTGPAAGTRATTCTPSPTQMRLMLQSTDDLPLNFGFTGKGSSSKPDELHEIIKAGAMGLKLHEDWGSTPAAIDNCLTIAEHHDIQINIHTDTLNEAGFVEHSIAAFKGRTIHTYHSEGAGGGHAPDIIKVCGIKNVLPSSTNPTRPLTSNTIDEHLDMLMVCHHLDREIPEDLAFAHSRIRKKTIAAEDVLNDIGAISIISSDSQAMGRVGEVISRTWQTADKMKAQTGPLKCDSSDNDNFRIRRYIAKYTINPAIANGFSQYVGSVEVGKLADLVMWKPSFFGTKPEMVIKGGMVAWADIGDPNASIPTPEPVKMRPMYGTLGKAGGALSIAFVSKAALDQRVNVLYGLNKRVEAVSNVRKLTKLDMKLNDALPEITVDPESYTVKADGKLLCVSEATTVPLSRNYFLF

In the case of `O=[N+]([O-])c1cc(Br)ccc1-c1csc(N2N=C(c3cc(Cl)cnc3Cl)CC2c2nc3ccccc3s2)n1` (stereo not shown) [Compound 1, 2-(1-(4-(4-Bromo-2-nitrophenyl)thiazol-2-yl)-3-(2,5-dichloropyridin-3-yl)-4,5-dihydro-1H-pyrazol-5-yl)benzo[d]thiazole], the IC50 (urease) is reported as 41.5 ± 1.7 µM, the melting point is reported as 233 to 234 °C and the IC50 (α-glucosidase) is reported as 13.1 ± 0.4 µM.

In the case of `Fc1ccc(-c2csc(N3N=C(c4cc(Cl)cnc4Cl)CC3c3nc4ccccc4s3)n2)cc1` (stereo not shown) [Compound 12, 2-(3-(2,5-Dichloropyridin-3-yl)-1-(4-(4-fluorophenyl)thiazol-2-yl)-4,5-dihydro-1H-pyrazol-5-yl)benzo[d]thiazole], the IC50 (urease) is reported as 22.3 ± 0.8 µM, the melting point is reported as 226 to 227 °C and the IC50 (α-glucosidase) is reported as 3.5 ± 0.1 µM.

`O=[N+]([O-])c1ccccc1-c1csc(N2N=C(c3cc(Cl)cnc3Cl)CC2c2nc3ccccc3s2)n1` (stereo not shown) [Compound 5, 2-(3-(2,5-Dichloropyridin-3-yl)-1-(4-(2-nitrophenyl)thiazol-2-yl)-4,5-dihydro-1H-pyrazol-5-yl)benzo[d]thiazole] gave an IC50 (urease) of 32.5 ± 2.1 µM, a melting point of 224 to 225 °C and an IC50 (α-glucosidase) of 6.7 ± 0.3 µM.

In the case of `Fc1ccccc1-c1csc(N2N=C(c3cc(Cl)cnc3Cl)CC2c2nc3ccccc3s2)n1` (stereo not shown) [Compound 11, 2-(3-(2,5-Dichloropyridin-3-yl)-1-(4-(2-fluorophenyl)thiazol-2-yl)-4,5-dihydro-1H-pyrazol-5-yl)benzo[d]thiazole], the melting point is reported as 221 to 222 °C.

With `Cc1cc(-c2csc(N3N=C(c4cc(Cl)cnc4Cl)CC3c3nc4ccccc4s3)n2)cc(C)c1Br` (stereo not shown) [Compound 15, 2-(1-(4-(4-Bromo-3,5-dimethylphenyl)thiazol-2-yl)-3-(2,5-dichloropyridin-3-yl)-4,5-dihydro-1H-pyrazol-5-yl)benzo[d]thiazole] the melting point was 221 to 222 °C.

With `O=[N+]([O-])c1cc(Cl)ccc1-c1csc(N2N=C(c3cc(Cl)cnc3Cl)CC2c2nc3ccccc3s2)n1` (stereo not shown) [Compound 9, 2-(1-(4-(4-Chloro-2-nitrophenyl)thiazol-2-yl)-3-(2,5-dichloropyridin-3-yl)-4,5-dihydro-1H-pyrazol-5-yl)benzo[d]thiazole] the IC50 (urease) was 29.4 ± 0.1 µM, the melting point was 230 to 231 °C and the IC50 (α-glucosidase) was 4.4 ± 0.3 µM.

For `Oc1cc(Cl)cc(Cl)c1-c1csc(N2N=C(c3cc(Cl)cnc3Cl)CC2c2nc3ccccc3s2)n1` (stereo not shown) [Compound 14, 2-(2-(5-(Benzo[d]thiazol-2-yl)-3-(2,5-dichloropyridin-3-yl)-4,5-dihydro-1H-pyrazol-1-yl)thiazol-4-yl)-3,5-dichlorophenol], the IC50 (urease) was 21.8 ± 2.9 µM, the melting point was 238 to 239 °C and the IC50 (α-glucosidase) was 3.4 ± 0.1 µM.

Work on `O=[N+]([O-])c1ccc(-c2csc(N3N=C(c4cc(Cl)cnc4Cl)CC3c3nc4ccccc4s3)n2)cc1` (stereo not shown) [Compound 4, 2-(3-(2,5-Dichloropyridin-3-yl)-1-(4-(4-nitrophenyl)thiazol-2-yl)-4,5-dihydro-1H-pyrazol-5-yl)benzo[d]thiazole] yielded an IC50 (urease) of 23.3 ± 2.4 µM, a melting point of 232 to 233 °C and an IC50 (α-glucosidase) of 4.1 ± 0.3 µM.

In the case of `Cc1ccc(-c2csc(N3N=C(c4cc(Cl)cnc4Cl)CC3c3nc4ccccc4s3)n2)cc1` (stereo not shown) [Compound 3, 2-(3-(2,5-Dichloropyridin-3-yl)-1-(4-(p-tolyl)thiazol-2-yl)-4,5-dihydro-1H-pyrazol-5-yl)benzo[d]thiazole], the IC50 (urease) is reported as 33.2 ± 3.8 µM, the melting point is reported as 227 to 228 °C and the IC50 (α-glucosidase) is reported as 7.5 ± 0.1 µM.

`NC(N)=S` [Thiourea, thiourea, reference compound] showed an IC50 (urease; in vitro, standard thiourea, N.A * = Not active, read-out: Urease IC50 (µM ± SEM)) of 31.4 ± 2.5 µM.

`COc1ccc(OC)c(-c2csc(N3N=C(c4cc(Cl)cnc4Cl)CC3c3nc4ccccc4s3)n2)c1` (stereo not shown) [Compound 10, 2-(3-(2,5-Dichloropyridin-3-yl)-1-(4-(2,5-dimethoxyphenyl)thiazol-2-yl)-4,5-dihydro-1H-pyrazol-5-yl)benzo[d]thiazole] gave an IC50 (urease) of 33.7 ± 0.1 µM, a melting point of 234 to 235 °C and an IC50 (α-glucosidase) of 8.9 ± 0.2 µM.

`CN(C)c1ccc(-c2csc(N3N=C(c4cc(Cl)cnc4Cl)CC3c3nc4ccccc4s3)n2)cc1` (stereo not shown) [Compound 8, 4-(2-(5-(Benzo[d]thiazol-2-yl)-3-(2,5-dichloropyridin-3-yl)-4,5-dihydro-1H-pyrazol-1-yl)thiazol-4-yl)-N,N-dimethylaniline] gave an IC50 (urease) of 39.2 ± 0.6 µM and a melting point of 231 to 232 °C.

In the case of `FC(F)(F)c1ccc(-c2csc(N3N=C(c4cc(Cl)cnc4Cl)CC3c3nc4ccccc4s3)n2)cc1` (stereo not shown) [Compound 6, 2-(3-(2,5-Dichloropyridin-3-yl)-1-(4-(4-(trifluoromethyl)phenyl)thiazol-2-yl)-4,5-dihydro-1H-pyrazol-5-yl)benzo[d]thiazole], the IC50 (urease) is reported as 14.3 ± 3.9 µM, the melting point is reported as 225 to 226 °C and the IC50 (α-glucosidase) is reported as 2.5 ± 0.3 µM.

For `Clc1cnc(Cl)c(C2=NN(c3nc(-c4ccc5ccccc5c4)cs3)C(c3nc4ccccc4s3)C2)c1` (stereo not shown) [Compound 16, 2-(3-(2,5-Dichloropyridin-3-yl)-1-(4-(naphthalen-2-yl)thiazol-2-yl)-4,5-dihydro-1H-pyrazol-5-yl)benzo[d]thiazole], the melting point was 243 to 244 °C.

Compound `Clc1cnc(Cl)c(C2=NN(c3nc(-c4ccc(OCc5ccccc5)cc4)cs3)C(c3nc4ccccc4s3)C2)c1` (stereo not shown) [Compound 13, 2-(1-(4-(4-(Benzyloxy)phenyl)thiazol-2-yl)-3-(2,5-dichloropyridin-3-yl)-4,5-dihydro-1H-pyrazol-5-yl)benzo[d]thiazole] has a melting point of 242 to 243 °C.

For `Oc1cc(F)ccc1-c1csc(N2N=C(c3cc(Cl)cnc3Cl)CC2c2nc3ccccc3s2)n1` (stereo not shown) [Compound 7, 2-(2-(5-(Benzo[d]thiazol-2-yl)-3-(2,5-dichloropyridin-3-yl)-4,5-dihydro-1H-pyrazol-1-yl)thiazol-4-yl)-5-fluorophenol], the IC50 (urease) was 19.2 ± 0.1 µM, the melting point was 228 to 229 °C and the IC50 (α-glucosidase) was 3.2 ± 0.1 µM.

For `Clc1cnc(Cl)c(C2=NN(c3nc(-c4cccc(Cl)c4Cl)cs3)C(c3nc4ccccc4s3)C2)c1` (stereo not shown) [Compound 17, 2-(1-(4-(2,3-Dichlorophenyl)thiazol-2-yl)-3-(2,5-dichloropyridin-3-yl)-4,5-dihydro-1H-pyrazol-5-yl)benzo[d]thiazole], the IC50 (urease) was 31.3 ± 0.4 µM, the melting point was 236 to 237 °C and the IC50 (α-glucosidase) was 6.8 ± 0.2 µM.

With `Cc1ccc(C)c(-c2csc(N3N=C(c4cc(Cl)cnc4Cl)CC3c3nc4ccccc4s3)n2)c1` (stereo not shown) [Compound 2, 2-(3-(2,5-Dichloropyridin-3-yl)-1-(4-(2,5-dimethylphenyl)thiazol-2-yl)-4,5-dihydro-1H-pyrazol-5-yl)benzo[d]thiazole] the IC50 (urease) was 37.2 ± 1.9 µM, the melting point was 219 to 220 °C and the IC50 (α-glucosidase) was 14.2 ± 0.1 µM.
